# US8741922B2, “Solid forms of N-(4-(7-azabicyclo[2.2,1]heptan-7-yl)-2-trifluoromethyl)phenyl)-4-oxo-5-(trifluoromethyl)-1,4-dihydroquinoline-3-carboxamide” (Vertex Pharmaceuticals Incorporated, priority 2009, dated 2014)
# Target: T1, ΔF508-CFTR (Homo sapiens, UniProt P13569, DEL508-508)
# T1 construct: expressed in transfected cells
# Assay: Membrane potential optical assay for ΔF508-CFTR potentiation (FLIPR III, voltage sensing dyes)
# Type: cell-based
# Conditions: assay not explicitly tied to the value, ΔF508-CFTR NIH 3T3 cells
# Source text: Assays for Detecting and Measuring ΔF508-CFTR Potentiation Properties of Compounds
# Membrane Potential Optical Methods for Assaying ΔF508-CFTR Modulation Properties of Compounds
# The assay utilizes fluorescent voltage sensing dyes to measure changes in membrane potential using a fluorescent plate reader (e.g., FLIPR III, Molecular Devices, Inc.) as a readout for increase in functional ΔF508-CFTR in NIH 3T3 cells. The driving force for the response is the creation of a chloride ion gradient in conjunction with channel activation by a single liquid addition step after the cells have previously been treated with compounds and subsequently loaded with a voltage sensing dye.
# To identify potentiators of ΔF508-CFTR, a double-addition HTS assay format was developed. This HTS assay utilizes fluorescent voltage sensing dyes to measure changes in membrane potential on the FLIPR III as a measurement for increase in gating (conductance) of ΔF508 CFTR in temperature-corrected ΔF508 CFTR NIH 3T3 cells. The driving force for the response is a Cl^− ion gradient in conjunction with channel activation with forskolin in a single liquid addition step using a fluorescent plate reader such as FLIPR III after the cells have previously been treated with potentiator compounds (or DMSO vehicle control) and subsequently loaded with a redistribution dye. […]
# T1 sequence (P13569 with tags, fused parts or gaps DEL508-508): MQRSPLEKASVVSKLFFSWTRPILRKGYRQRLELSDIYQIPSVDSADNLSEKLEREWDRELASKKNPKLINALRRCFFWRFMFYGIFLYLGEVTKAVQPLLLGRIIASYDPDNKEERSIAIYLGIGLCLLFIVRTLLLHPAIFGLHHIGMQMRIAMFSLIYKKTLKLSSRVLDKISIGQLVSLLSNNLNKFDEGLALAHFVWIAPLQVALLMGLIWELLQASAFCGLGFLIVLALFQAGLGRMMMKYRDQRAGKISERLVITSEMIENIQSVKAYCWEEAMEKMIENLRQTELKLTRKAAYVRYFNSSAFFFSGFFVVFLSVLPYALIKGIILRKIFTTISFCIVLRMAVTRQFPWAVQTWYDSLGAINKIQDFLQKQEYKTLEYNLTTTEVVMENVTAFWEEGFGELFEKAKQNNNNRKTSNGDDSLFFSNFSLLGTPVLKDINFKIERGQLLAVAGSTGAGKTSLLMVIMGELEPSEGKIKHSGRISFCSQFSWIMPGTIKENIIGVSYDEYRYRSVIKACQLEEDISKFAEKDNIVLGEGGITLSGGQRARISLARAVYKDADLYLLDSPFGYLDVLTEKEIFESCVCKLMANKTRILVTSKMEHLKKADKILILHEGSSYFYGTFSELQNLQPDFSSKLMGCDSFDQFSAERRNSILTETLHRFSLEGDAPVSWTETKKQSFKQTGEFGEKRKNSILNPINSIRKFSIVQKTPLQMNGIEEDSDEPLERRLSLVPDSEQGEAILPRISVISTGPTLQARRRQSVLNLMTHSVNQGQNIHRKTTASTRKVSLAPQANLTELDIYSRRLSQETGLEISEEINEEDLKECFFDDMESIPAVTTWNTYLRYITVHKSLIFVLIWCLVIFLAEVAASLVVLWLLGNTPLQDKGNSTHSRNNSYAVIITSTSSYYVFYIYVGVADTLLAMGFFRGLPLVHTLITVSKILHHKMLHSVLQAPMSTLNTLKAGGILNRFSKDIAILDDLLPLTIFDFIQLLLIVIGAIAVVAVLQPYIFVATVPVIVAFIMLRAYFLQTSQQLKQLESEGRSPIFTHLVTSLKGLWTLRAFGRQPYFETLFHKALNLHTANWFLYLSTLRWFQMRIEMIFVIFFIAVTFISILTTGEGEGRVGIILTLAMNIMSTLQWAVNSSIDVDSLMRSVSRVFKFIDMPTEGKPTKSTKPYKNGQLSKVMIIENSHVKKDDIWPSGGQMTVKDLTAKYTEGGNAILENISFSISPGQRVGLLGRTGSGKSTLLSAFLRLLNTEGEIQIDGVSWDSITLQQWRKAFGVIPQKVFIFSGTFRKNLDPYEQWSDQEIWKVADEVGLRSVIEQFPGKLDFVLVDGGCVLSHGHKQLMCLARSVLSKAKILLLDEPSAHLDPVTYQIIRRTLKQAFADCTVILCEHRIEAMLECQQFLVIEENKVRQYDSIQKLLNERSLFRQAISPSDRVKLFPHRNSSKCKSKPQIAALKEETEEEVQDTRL
compound,measurement,value
"O=C(Nc1ccc(N2C3CCC2CC3)cc1C(F)(F)F)c1c[nH]c2cccc(C(F)(F)F)c2c1=O [Compound I, Form A, N-(4-(7-azabicyclo[2.2.1]heptan-7-yl)-2-(trifluoromethyl)phenyl)-4-oxo-5-(trifluoromethyl)-1,4-dihydroquinoline-3-carboxamide]",EC50,< 2 µM
